Measurements from ChEMBL document CHEMBL5226366, “Synthesis and Structure Revision of Naturally Occurring Homoisoflavane (+)-Dracaeconolide B” (2023).

Key:
[1] = Antiangiogenic activity against human HREC cells assessed as inhibition of cell growth incubated for 44 hrs by Alamar Blue fluorescence assay; format: functional
HUVEC = test: Antiangiogenic activity against HUVEC cells assessed as inhibition of cell growth incubated for 44 hrs by Alamar Blue fluorescence assay; format: functional; conditions: Homo sapiens

Row | Compound | GI50 [1] | GI50 (HUVEC)
1 | COc1cc(O)c(OC)c2c1C[C@@H](Cc1ccc(O)cc1)CO2 | > 100 µM | > 100 µM
2 | COc1cc2c(c(O)c1OC)CC(Cc1ccc(O)cc1)CO2 (stereo unspecified) | 3.47 µM | 90.1 µM
3 | COc1cc(OC)c2c(c1O)OCC(Cc1ccc(O)cc1)C2 (stereo unspecified) | 28.3 µM | > 100 µM
4 | COc1c(O)cc2c(c1OC)C[C@H](Cc1ccc(O)cc1)CO2 | > 100 µM | > 100 µM
5 | COc1cc(O)c2c(c1OC)OCC(Cc1ccc(O)cc1)C2 (stereo unspecified) | > 100 µM | > 100 µM
6 | COc1cc2c(c(OC)c1O)CC(Cc1ccc(O)cc1)CO2 (stereo unspecified) | 0.96 µM | > 100 µM
7 | COc1c(O)cc2c(c1OC)CC(Cc1ccc(O)cc1)CO2 (stereo unspecified) | > 100 µM | > 100 µM
8 | COc1c(O)cc2c(c1OC)C[C@@H](Cc1ccc(O)cc1)CO2 | > 100 µM | > 100 µM
